Reference: patent US11053204B2, “Pyrimidinyloxy benzene derivatives as herbicides” (FMC Corporation, priority 2015, dated 2021)

Key:
Assay type in all cases: in vivo
[1] = tested on: Italian ryegrass (Lolium multiflorum); test: Test A preemergence, visual injury rating
Outline: (§1)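 Scoring: eye-based comparison with untreated controls, 0 for no effect through 100 for complete control, at about day 10. Treatments: directed soil spray preemergence; foliar spray postemergence on 2–10 cm plants at the one- to two-leaf stage. Medium: loam soil with sand.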

[2] = tested on: barnyardgrass (Echinochloa crus-galli); test: Test A preemergence, visual injury rating; conditions: for Plant response rating, Barnyardgrass: 31 g ai/ha, 0 to 100 scale, 0 no effect, 100 complete control; for Barnyardgrass plant response rating: 125 g ai/ha, 0 to 100 scale (0 no effect, 100 complete control)
Outline: as §1

[3] = tested on: giant foxtail (Setaria faberii); test: Test A preemergence, visual injury rating
Outline: as §1

[4] = tested on: kochia (Kochia scoparia); test: Test A preemergence, visual injury rating
Outline: as §1

[5] = tested on: pigweed (Amaranthus retroflexus); test: Test A preemergence, visual injury rating
Outline: as §1

[6] = tested on: ragweed (common ragweed, Ambrosia elatior); test: Test A preemergence, visual injury rating
Outline: as §1

[7] = tested on: Italian ryegrass (Lolium multiflorum); test: Test A postemergence, visual injury rating; conditions: 0 is no effect, 100 is complete control; for Ryegrass, Italian plant response rating: 0 to 100 scale, approximately 10 days
From the text: (§2) Seeds of plant species selected from barnyardgrass (Echinochloa crus-galli), kochia (Kochia scoparia), ragweed (common ragweed, Ambrosia elatior), Italian ryegrass (Lolium multiflorum), large (Lg) crabgrass (Digitaria sanguinalis), giant foxtail (Setaria faberii), morningglory (Ipomoea spp.), pigweed (Amaranthus retroflexus), velvetleaf (Abutilon theophrasti), wheat (Triticum aestivum), and corn (Zea mays) were planted into a blend of loam soil and sand and treated preemergence with a directed soil spray using test chemicals formulated in a non-phytotoxic solvent mixture which included a surfactant.
(§3) At the same time, plants selected from these crop and weed species and also blackgrass (Alopecurus myosuroides), and galium (catchweed bedstraw, Galium aparine) were planted in pots containing the same blend of loam soil and sand and treated with postemergence applications of test chemicals formulated in the same manner. Plants ranged in height from 2 to 10 cm and were in the one- to two-leaf stage for the postemergence treatment. Treated plants and untreated controls were maintained in a greenhouse for approximately 10 days, after which time all treated plants were compared to untreated controls and visually evaluated for injury. Plant response ratings, summarized in Table A, are based on a 0 to 100 scale where 0 is no effect and 100 is complete control. A dash (-) response means no test result.

[8] = tested on: barnyardgrass (Echinochloa crus-galli); test: Test A postemergence, visual injury rating; conditions: 0 is no effect, 100 is complete control; for Barnyardgrass plant response rating: 0 to 100 scale, approximately 10 days
From the text: as §2, §3

[9] = tested on: blackgrass (Alopecurus myosuroides); test: Test A postemergence, visual injury rating; conditions: 0 is no effect, 100 is complete control; for Blackgrass plant response rating: 0 to 100 scale, approximately 10 days
From the text: as §2, §3

[10] = tested on: corn (Zea mays); test: Test A postemergence, visual injury rating; conditions: 0 is no effect, 100 is complete control; for Corn plant response rating: 0 to 100 scale, approximately 10 days
From the text: as §2, §3

[11] = tested on: galium (catchweed bedstraw, Galium aparine); test: Test A postemergence, visual injury rating; conditions: 0 is no effect, 100 is complete control; for Galium plant response rating: 0 to 100 scale, approximately 10 days
From the text: as §2, §3

[12] = tested on: giant foxtail (Setaria faberii); test: Test A postemergence, visual injury rating; conditions: 0 is no effect, 100 is complete control; for Foxtail, Giant plant response rating: 0 to 100 scale, approximately 10 days
From the text: as §2, §3

[13] = tested on: kochia (Kochia scoparia); test: Test A postemergence, visual injury rating; conditions: 0 is no effect, 100 is complete control; for Kochia plant response rating: 0 to 100 scale, approximately 10 days
From the text: as §2, §3

[14] = tested on: pigweed (Amaranthus retroflexus); test: Test A postemergence, visual injury rating; conditions: 0 is no effect, 100 is complete control; for Pigweed plant response rating: 0 to 100 scale, approximately 10 days
From the text: as §2, §3

[15] = tested on: ragweed (common ragweed, Ambrosia elatior); test: Test A postemergence, visual injury rating; conditions: 0 is no effect, 100 is complete control; for Ragweed plant response rating: 0 to 100 scale, approximately 10 days
From the text: as §2, §3

[16] = tested on: wheat (Triticum aestivum); test: Test A postemergence, visual injury rating; conditions: 0 is no effect, 100 is complete control; for Wheat plant response rating: 0 to 100 scale, approximately 10 days
From the text: as §2, §3

[17] = tested on: barnyardgrass (Echinochloa crus-galli); test: Test B flooded paddy test, plant response rating; conditions: 250 g ai/ha; Flood; scale of 0 to 100 where 0 is no effect and 100 is complete control; 13 to 15 days
Outline: (§4)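 Flooded 3 cm over soil; compound into paddy water; depth kept constant. Greenhouse 13–15 d.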

[18] = tested on: ducksalad (Heteranthera limosa); test: Test B flooded paddy test, plant response rating; conditions: 250 g ai/ha; Flood; scale of 0 to 100 where 0 is no effect and 100 is complete control; 13 to 15 days
Outline: as §4

[19] = tested on: rice (Oryza sativa); test: Test B flooded paddy test, plant response rating; conditions: 250 g ai/ha; Flood; scale of 0 to 100 where 0 is no effect and 100 is complete control; 13 to 15 days
Outline: as §4

[20] = tested on: sedge, umbrella (small-flower umbrella sedge, Cyperus difformis); test: Test B flooded paddy test, plant response rating; conditions: 250 g ai/ha; Flood; scale of 0 to 100 where 0 is no effect and 100 is complete control; 13 to 15 days
Outline: as §4

[21] = 31 g ai/ha, 0 to 100 scale, 0 no effect, 100 complete control
[22] = 125 g ai/ha, 0 to 100 scale (0 no effect, 100 complete control)

Row | Compound | Plant response rating, Ryegrass, Italian [1, 21] | Plant response rating, Barnyardgrass [2] | Barnyardgrass plant response rating [2] | Plant response rating, Foxtail, Giant [3, 21] | Plant response rating, Kochia [4, 21] | Plant response rating, Pigweed [5, 21] | Plant response rating, Ragweed [6, 21] | Ryegrass, Italian plant response rating ([7]; 31 g ai/ha) | Barnyardgrass plant response rating ([8]; 31 g ai/ha) | Blackgrass plant response rating ([9]; 31 g ai/ha) | Corn plant response rating ([10]; 31 g ai/ha) | Galium plant response rating ([11]; 31 g ai/ha) | Foxtail, Giant plant response rating ([12]; 31 g ai/ha) | Kochia plant response rating ([13]; 31 g ai/ha) | Pigweed plant response rating ([14]; 31 g ai/ha) | Ragweed plant response rating ([15]; 31 g ai/ha) | Wheat plant response rating ([16]; 31 g ai/ha) | Plant response rating, Barnyardgrass [17] | Plant response rating, Ducksalad [18] | Plant response rating, Rice [19] | other results
1 | O=C(OCCCl)c1c(Br)cccc1Oc1ncc(Cl)cn1 [Compound 46] | 0 | 0 | 20 | 40 | 0 | 50 | 0 | 0 | 0 | 0 | 0 | 50 | 0 | 30 | 60 | 0 | 0 | 0 | 75 | 10 | Ryegrass, Italian plant response rating [1, 22]: 0; Foxtail, Giant plant response rating [3, 22]: 100; Kochia plant response rating [4, 22]: 70; Pigweed plant response rating [5, 22]: 100; Ragweed plant response rating [6, 22]: 0; Ryegrass, Italian plant response rating (0 to 100 scale) ([7]; 125 g ai/ha): 0; Barnyardgrass plant response rating (0 to 100 scale) ([8]; 125 g ai/ha): 30; Blackgrass plant response rating (0 to 100 scale) ([9]; 125 g ai/ha): 0; Corn plant response rating (0 to 100 scale) ([10]; 125 g ai/ha): 10; Galium plant response rating (0 to 100 scale) ([11]; 125 g ai/ha): 70; Foxtail, Giant plant response rating (0 to 100 scale) ([12]; 125 g ai/ha): 40; Kochia plant response rating (0 to 100 scale) ([13]; 125 g ai/ha): 90; Pigweed plant response rating (0 to 100 scale) ([14]; 125 g ai/ha): 100; Ragweed plant response rating (0 to 100 scale) ([15]; 125 g ai/ha): 0; Wheat plant response rating (0 to 100 scale) ([16]; 125 g ai/ha): 0; Plant response rating, Sedge, Umbrella [20]: 80
2 | N#Cc1cccc(Oc2ncc(Cl)cn2)c1C(=O)CCCCC(F)(F)F [Compound 109] | 0 | 0 | 20 | 0 | 0 | 0 | 0 | 0 | 0 | 0 | 10 | 0 | 0 | 0 | 20 | 0 | 0 | 0 | 0 | 0 | Plant response rating, Ryegrass, Italian [1, 22]: 0; Plant response rating, Foxtail, Giant [3, 22]: 40; Plant response rating, Kochia [4, 22]: 0; Plant response rating, Pigweed [5, 22]: 60; Plant response rating, Ragweed [6, 22]: 0; Ryegrass, Italian plant response rating ([7]; 125 g ai/ha): 0; Barnyardgrass plant response rating ([8]; 125 g ai/ha): 0; Blackgrass plant response rating ([9]; 125 g ai/ha): 0; Corn plant response rating ([10]; 125 g ai/ha): 20; Galium plant response rating ([11]; 125 g ai/ha): 30; Foxtail, Giant plant response rating ([12]; 125 g ai/ha): 0; Kochia plant response rating ([13]; 125 g ai/ha): 20; Pigweed plant response rating ([14]; 125 g ai/ha): 60; Ragweed plant response rating ([15]; 125 g ai/ha): 20; Wheat plant response rating ([16]; 125 g ai/ha): 0; Plant response rating, Sedge, Umbrella [20]: 0
